The structures appear in SMILES notation.

The record followed here is patent US9914730B2, “Azaquinazoline inhibitors of Atypical protein Kinase C” (Ignyta, Inc., priority 2012, dated 2018).

The target of this assay is T1, full-length human PKCι (Homo sapiens, UniProt P41743).
T1 construct: Recombinant, full-length human PKCι expressed in Sf21 insect cells is also commercially available; purchased; host or cells: Sf21 insect cells
T1 sequence (P41743 1-596): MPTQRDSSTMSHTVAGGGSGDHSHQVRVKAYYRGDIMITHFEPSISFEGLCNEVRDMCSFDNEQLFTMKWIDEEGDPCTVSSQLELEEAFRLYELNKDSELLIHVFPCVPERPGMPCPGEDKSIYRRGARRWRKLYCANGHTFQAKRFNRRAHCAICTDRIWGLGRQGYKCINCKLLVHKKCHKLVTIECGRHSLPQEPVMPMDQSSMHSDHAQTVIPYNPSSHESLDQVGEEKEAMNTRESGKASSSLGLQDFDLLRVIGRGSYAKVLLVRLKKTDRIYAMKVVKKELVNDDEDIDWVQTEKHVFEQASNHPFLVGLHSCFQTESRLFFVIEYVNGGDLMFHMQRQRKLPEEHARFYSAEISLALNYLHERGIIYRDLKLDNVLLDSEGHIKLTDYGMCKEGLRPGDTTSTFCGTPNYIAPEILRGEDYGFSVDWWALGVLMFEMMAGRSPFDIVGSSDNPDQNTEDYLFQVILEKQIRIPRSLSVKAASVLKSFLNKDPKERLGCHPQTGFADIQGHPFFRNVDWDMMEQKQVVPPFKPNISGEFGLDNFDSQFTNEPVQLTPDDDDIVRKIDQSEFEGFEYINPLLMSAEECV
The assay can be described thus: PKCι IC50 IMAP assay, full-length PKCι at 150 μM ATP. Format: biochemical. As to conditions: read-out: IC50 in IMAP assay against full length PKCi at 150 μM ATP. The text has this: Assays are based on the ability of PKCι to phosphorylate a commercially available peptide substrate in vitro. The peptide substrate is FAM-PKCε pseudopeptide derived peptide, and comprises the amino acid sequence 5FAM-[…]-NH2. Recombinant, full-length human PKCι expressed in Sf21 insect cells is also commercially available. Recombinant, kinase-domain human PKCι is expressed and purified in-house.
The procedure below explains how dose response curves for inhibitors of PKCι are obtained. The screen described is for a 384 well format but the assay can be adapted to 1536 or other formats as required.
Compounds to be tested are dissolved in 100% DMSO. Compounds are diluted as required to give a final concentration of 4% DMSO (v/v) in the assay. 1 μl is plated into 384 well black low-binding flat bottomed assay plates which are used immediately. Dilutions and additions of compound to assay plates are carried out using Matrix WellMate® and Matrix PlateMate® Plus liquid handling systems.
On the day of the screen PKCι/substrate working solution, and ATP working solution, are prepared in buffer containing 20 mM tris-HCl pH7.5, 10 mM MgCl2, 0.01% Triton X100, 250 μM EGTA and 1 mM DTT. The final concentration of PKCι used varies depending on the batch of protein but is typically 15 pM. The final concentration of peptide substrate in the assay is 100 nM. ATP is used at a final concentration of 150 μM or 25 μM in the assays containing full-length or kinase-domain PKCι respectively, which corresponds to five times or equal to the KM^APP for ATP for each enzyme, respectively. The final buffer concentration in the assay is 18 mM tris-HCl pH7.5, 9 mM MgCl2, 0.009% Triton X100, 225 μM EGTA and 0.9 mM DTT. Relevant controls are included, namely no compound and no enzyme. 5 μl PKCι/substrate working solution at 30 pM and 200 nM, respectively, is added to the wells, followed by 4 μl ATP working solution at 375 μM or 62.5 μM for full-length or kinase-domain PKCι respectively, using a 16 channel Matrix pipette. The reaction is allowed to incubate for 60 minutes at room temperature, before the reaction is stopped and developed by the addition of 20 μl IMAP™ development reagent (Molecular Devices). IMAP development reagent consists of 0.25% (v/v) IMAP progressive binding reagent, 17% (v/v) IMAP progressive binding buffer A and 3% (v/v) IMAP progressive binding buffer B. The plates are then incubated for 2 hours at room temperature before being read using an appropriate plate reader, for example a Molecular Devices HT Analyst or a BMG Pherastar. Plates are read using a fluorescence polarisation protocol with excitation at 485 nm and emission at 530 nm, and dichroic mirror at 505 nm.
Percentage inhibition values are calculated from fluorescence polarisation values, using the no compound and no enzyme control values as 0% and 100% inhibition, respectively. IC50 determination is performed with ExcelFit software (IDBS) using curve fit 205. Z′ factors are determined for each plate tested and are all above 0.5.

Turning to `Cc1nccc2c(N3CCNCC3)nc(-c3ccncc3)nc12` [Example 160, 8-Methyl-4-piperazin-1-yl-2-pyridin-4-yl-pyrido[3,4-d]pyrimidine], the IC50 (usually the point on the concentration scale where inhibition reaches its midpoint) was in the range of 10 to 40 µM.
`CN(c1nc(-c2ccnc(Nc3c(F)cccc3F)c2)nc2cncc(C3CC3)c12)C1CCN(CC(F)F)CC1` [Example 2123, {5-Cyclopropyl-2-[2-(2,6-difluoro-phenylamino)-pyridin-4-yl]-pyrido[3,4-d]pyrimidin-4-yl}-[1-(2,2-difluoro-ethyl)-piperidin-4-yl]-methyl-amine]: the half-inhibitory concentration (IC50) lay within 0.1 to 1 µM.
The result for `CN(c1nc(-c2ccnc(Nc3nc(F)c(F)cc3F)c2)nc2cncc(C3CC3)c12)C1CCNCC1` [Example 2014, {5-Cyclopropyl-2-[2-(3,5,6-trifluoro-pyridin-2-ylamino)-pyridin-4-yl]-pyrido[3,4-d]pyrimidin-4-yl}-methyl-piperidin-4-yl-amine] reads less than 0.1 µM; that for `C[C@@H](Nc1cc(-c2nc(N3CCNCC3)c3c(C4CC4)cncc3n2)ccn1)c1nc(F)ccc1F` [Example 802, [4-(5-Cyclopropyl-4-piperazin-1-yl-pyrido[3,4-d]pyrimidin-2-yl)-pyridin-2-yl]-[(R)-1-(3,6-difluoro-pyridin-2-yl)-ethyl]-amine], less than 0.1 µM.
The value for `COc1cncc2nc(-c3ccnc(NC(=O)C4CCOCC4)c3)nc(N3CCNCC3)c12` [Example 218, Tetrahydro-pyran-4-carboxylic acid[4-(5-methoxy-4-piperazin-1-yl-pyrido[3,4 d]pyrimidin-2-yl)-pyridin-2-yl]-amide] was less than 0.1 µM; that for `Cc1cccc(Nc2cc(-c3nc(N4CCNCC4)c4c(C5CC5)cncc4n3)ccn2)c1C` [Example 540, [4-(5-Cyclopropyl-4-piperazin-1-yl-pyrido[3,4-d]pyrimidin-2-yl)-pyridin-2-yl]-(2,3-dimethyl-phenyl)-amine] was less than 0.1 µM.
As for `N[C@H](CNc1nc(-c2ccncc2)nc2c(Nc3nc[nH]n3)nccc12)Cc1ccccc1` [Example 126, 4-N-[(2S)-2-amino-3-phenylpropyl]-2-(pyridin-4-yl)-8-N-(1H-1,2,4-triazol-3-yl)pyrido[3,4-d]pyrimidine-4,8-diamine], the IC50 was in the range of 0.1 to 1 µM.
The value for `COc1cncc2nc(-c3ccnc(Nc4ccc(C5CCOCC5)cc4)c3)nc(N3CCNCC3)c12` [Example 362, [4-(5-Methoxy-4-piperazin-1-yl-pyrido[3,4-d]pyrimidin-2-yl)-pyridin-2-yl]-[4-(tetrahydro-pyran-4-yl)-phenyl]-amine] was less than 0.1 µM; that for `Fc1cccnc1Nc1cc(-c2nc(N3CCNCC3)c3c(C4CCC4)cncc3n2)ccn1` [Example 784, [4-(5-Cyclobutyl-4-piperazin-1-yl-pyrido[3,4-d]pyrimidin-2-yl)-pyridin-2-yl]-(3-fluoro-pyridin-2-yl)-amine] was less than 0.1 µM.
The result for `FC(F)c1cc2c(-c3nc(N4CCNCC4)c4c(C5CC5)cncc4n3)ccnc2[nH]1` [Example 2106, 5-Cyclopropyl-2-(2-difluoromethyl-1H-pyrrolo[2,3-b]pyridin-4-yl)-4-piperazin-1-yl-pyrido[3,4-d]pyrimidine] reads less than 0.1 µM.
Take `COc1ccc(-c2nccc3c(NC[C@@H](N)Cc4ccccc4)nc(-c4ccncc4)nc23)cc1` [Example 95, N-[(2S)-2-amino-3-phenylpropyl]-8-(4-methoxy-phenyl)-2-(pyridin-4-yl)-pyrido[3,4-d]-pyrimidin-4-amine]: the IC50 is 0.1 to 1 µM.
The value for `FC[C@H]1CN(c2nc(-c3ccnc(Nc4cc(C(F)(F)F)ccn4)c3)nc3cncc(C4CC4)c23)CCN1` [Example 511, {4-[5-Cyclopropyl-4-((R)-3-fluoromethyl-piperazin-1-yl)-pyrido[3,4-d]pyrimidin-2-yl]-pyridin-2-yl}-(4-trifluoromethyl-pyridin-2-yl)-amine] was 0.1 to 1 µM; that for `c1cc(-c2nc(N3CCNCC3)c3c(C4CC4)cncc3n2)c2cc[nH]c2n1` [Example 1209, 5-Cyclopropyl-4-piperazin-1-yl-2-(1H-pyrrolo[2,3-b]pyridin-4-yl)-pyrido[3,4-d]pyrimidine] was less than 0.1 µM.
`Clc1ccccc1-c1cc2c(-c3nc(N4CCNCC4)c4c(C5CCC5)cncc4n3)ccnc2[nH]1` [Example 2204, 2-[2-(2-Chloro-phenyl)-1H-pyrrolo[2,3-b]pyridin-4-yl]-5-cyclobutyl-4-piperazin-1-yl-pyrido[3,4-d]pyrimidine]: the IC50 is less than 0.1 µM.
On to `Fc1cnc(Nc2cc(-c3nc(NC4CCNCC4F)c4c(C5CC5)cncc4n3)ccn2)c(F)c1` (stereo not drawn) [Example 2186, {5-Cyclopropyl-2-[2-(3,5-difluoro-pyridin-2-ylamino)-pyridin-4-yl]-pyrido[3,4-d]pyrimidin-4-yl}-(3-fluoro-piperidin-4-yl)-amine], for which the IC50 lay within 0.1 to 1 µM.
The value for `COc1cncc2nc(-c3ccnc(Nc4ccc(C(F)(F)F)cn4)c3)nc(N3CCNCC3)c12` [Example 368, [4-(5-Methoxy-4-piperazin-1-yl-pyrido[3,4-d]pyrimidin-2-yl)-pyridin-2-yl]-(5-trifluoromethyl-pyridin-2-yl)-amine] was less than 0.1 µM; that for `CNc1nc(-c2ccnc(Nc3ccc(OCCN4CCCC4)cc3)c2)nc2cncc(OC)c12` [Example 501, (5-Methoxy-2-{2-[4-(2-pyrrolidin-1-yl-ethoxy)-phenylamino]-pyridin-4-yl}-pyrido[3,4-d]pyrimidin-4-yl)-methyl-amine] was 10 to 40 µM.
As for `CC1(C)CN(c2nc(-c3ccnc(Nc4ccc(F)cc4)c3)nc3cncc(C4CC4)c23)CCN1` [Example 719], the IC50 was less than 0.1 µM.
In the case of `COc1cncc2nc(-c3ccncc3)nc(N3CCOCC3)c12` [Example 70, 4-[5-methoxy-2-(pyridin-4-yl)-pyrido[3,4-d]-pyrimidin-4-yl]-morpholine], the IC50 lay within 1 to 10 µM.
For the compound `COc1cncc2nc(-c3ccnc(Nc4ccccc4)c3)nc(NCCC(N)=O)c12` [Example 458, 3-[5-Methoxy-2-(2-phenylamino-pyridin-4-yl)-pyrido[3,4-d]pyrimidin-4-ylamino]-propionamide], the IC50 fell in the range of 1 to 10 µM.
`COc1cncc2nc(-c3ccncc3)nc(N[C@@H]3CCNC3)c12` [Example 2, (5-Methoxy-2-pyridin-4-yl-pyrido[3,4-d]pyrimidin-4-yl)-(R)-pyrrolidin-3-yl-amine]: the IC50 was in the range of 0.1 to 1 µM.
With `Fc1cc(F)c(Nc2cc(-c3nc(N4CCNCC4)c4c(C(F)(F)F)cncc4n3)ccn2)nc1F` [Example 2195, [4-(4-Piperazin-1-yl-5-trifluoromethyl-pyrido[3,4-d]pyrimidin-2-yl)-pyridin-2-yl]-(3,5,6-trifluoro-pyridin-2-yl)-amine], the IC50 is less than 0.1 µM.
For the compound `c1ccc(C2(c3cc4c(-c5nc(N6CCNCC6)c6c(C7CCC7)cncc6n5)ccnc4[nH]3)CC2)cc1` [Example 2113, 5-Cyclobutyl-2-[2-(1-phenyl-cyclopropyl)-1H-pyrrolo[2,3-b]pyridin-4-yl]-4-piperazin-1-yl-pyrido[3,4-d]pyrimidine], the IC50 was less than 0.1 µM.
For `COc1cncc2nc(-c3ccnc(Nc4cc(C)on4)c3)nc(N3CCNCC3)c12` [Example 496, [4-(5-Methoxy-4-piperazin-1-yl-pyrido[3,4-d]pyrimidin-2-yl)-pyridin-2-yl]-(5-methyl-isoxazol-3-yl)-amine], the IC50 lay within 10 to 40 µM.
